# *1 amine or outer side, *2 acyl side, *3 side chain or, on linkers, in order; H or OH if unused. Where a SMILES comes first, the peptide text is derived from it. Bridges are numbered along the chain shown (N, C = ends). [ ]: non-standard residue; d: D form. The star is where a group is joined. hPhe(3,5-F2-4-CF3) = N[C@@H](CCc1cc(F)c(C(F)(F)F)c(F)c1)C(=O)O; hPhe(3-Cl-4-CF3) = N[C@@H](CCc1ccc(C(F)(F)F)c(Cl)c1)C(=O)O; X35 = Cc1ccc(C[C@@H](C(=O)[*:2])N(CCC(C)(C)C)[*:1])cc1; NPrPhe(4-CF3) = CCCN[C@@H](Cc1ccc(C(F)(F)F)cc1)C(=O)O; NMeAbu(4,4,4-F3) = CN[C@@H](CC(F)(F)F)C(=O)O; Pip(4,4-F2) = O=C(O)[C@@H]1CC(F)(F)CCN1; NMeGly(cPent) = CN[C@H](C(=O)O)C1CCCC1; NMeD = CN[C@@H](CC(=O)O)C(=O)O; NMeL = CN[C@@H](CC(C)C)C(=O)O; Morpholide = C1CN(*)CCO1; NMeA = CN[C@@H](C)C(=O)O; Ac5c = NC1(C(=O)O)CCCC1; Aze = O=C(O)[C@@H]1CCN1; Sar = CNCC(=O)O
# Columns and labels:
# [1] = molecular target: GDP-bound NRAS wild-type protein (Homo sapiens, UniProt P01111); test: Binding to NRAS by surface plasmon resonance (SPR), Single Cycle Kinetics; conditions: SPR; for NRAS/KRAS (ratio of KD value with respect to NRAS to KD value with respect to KRAS): GDP-bound NRAS wild-type vs GDP-bound KRAS wild-type
# [2] = molecular target: GDP-bound HRAS wild-type protein (Homo sapiens, UniProt P01112); test: Binding to HRAS by surface plasmon resonance (SPR), Single Cycle Kinetics; conditions: SPR; for HRAS/KRAS (ratio of KD value with respect to HRAS to KD value with respect to KRAS): GDP-bound HRAS wild-type vs GDP-bound KRAS wild-type
# Sequence of GDP-bound HRAS wild-type protein (P01112 whole entry): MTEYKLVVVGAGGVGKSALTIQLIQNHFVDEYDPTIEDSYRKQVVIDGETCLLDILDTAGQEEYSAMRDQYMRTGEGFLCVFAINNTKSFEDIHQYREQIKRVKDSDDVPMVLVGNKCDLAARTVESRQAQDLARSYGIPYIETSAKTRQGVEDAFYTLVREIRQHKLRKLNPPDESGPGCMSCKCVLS
# Sequence of GDP-bound NRAS wild-type protein (P01111 whole entry): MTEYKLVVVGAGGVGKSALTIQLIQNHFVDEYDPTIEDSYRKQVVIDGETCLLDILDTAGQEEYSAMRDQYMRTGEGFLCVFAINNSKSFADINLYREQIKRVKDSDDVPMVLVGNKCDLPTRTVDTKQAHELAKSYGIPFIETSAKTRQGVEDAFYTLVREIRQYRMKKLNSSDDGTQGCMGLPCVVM
smiles,measurement,setting,value
CCO[C@@H]1C[C@H]2C(=O)NC3(CCC3)C(=O)N(C)[C@@H](C3CCCC3)C(=O)N(C)[C@H](C(=O)N(C)C)CC(=O)N(C)[C@@H](Cc3ccccc3)C(=O)N[C@@H]([C@@H](C)CC)C(=O)N(C)CC(=O)N(C)[C@H]3C/C=C\CCN(C3=O)[C@@H](Cc3ccc(C(F)(F)F)cc3)C(=O)N(C)CC(=O)N[C@@H](CCc3cc(F)c(C(F)(F)F)c(F)c3)C(=O)N2C1 [PP1116],NRAS/KRAS (ratio of KD value with respect to NRAS to KD value with respect to KRAS),[1],A (a compound having 10 or more and less than 20 is denoted as A)
same,HRAS/KRAS (ratio of KD value with respect to HRAS to KD value with respect to KRAS),[2],A (a compound having 10 or more and less than 20 is denoted as A)
CC[C@H](C)[C@@H]1NC(=O)[C@H](CC(C)C)N(C)C(=O)C[C@@H](C(=O)N2CCOCC2)N(C)C(=O)[C@H](C2CCCC2)N(C)C(=O)C2(CCCC2)NC(=O)[C@@H]2CCCN2C(=O)[C@H](CCc2cc(F)c(C(F)(F)F)c(F)c2)NC(=O)CN(C)C(=O)[C@H](Cc2ccc(C(F)(F)F)cc2)N2CCCCC[C@@H](C2=O)N(C)C(=O)CN(CC)C1=O [PP0483],NRAS/KRAS (ratio of KD value with respect to GDP-bound NRAS wild-type protein to KD value with respect to KRAS),[1],B (a compound having 3 or more and less than 10 is denoted as B)
same,HRAS/KRAS (ratio of KD value with respect to GDP-bound HRAS wild-type protein to KD value with respect to KRAS),[2],B (a compound having 3 or more and less than 10 is denoted as B)
"CCCN1C(=O)CN(C)C(=O)[C@@H]2CCN2C(=O)[C@H]([C@@H](C)CC)NC(=O)[C@H](CC(C)C)N(C)C(=O)C[C@@H](C(=O)N2CCOCC2)N(C)C(=O)[C@H](CC(F)(F)F)N(C)C(=O)C2(CCCC2)NC(=O)[C@@H]2CCCN2C(=O)[C@H](CCc2cc(F)c(C(F)(F)F)c(F)c2)NC(=O)CN(C)C(=O)[C@@H]1Cc1ccc(C(F)(F)F)cc1 [PP0784] ([NMeL]I[Aze][Sar][NPrPhe(4-CF3)][Sar][hPhe(3,5-F2-4-CF3)]P[Ac5c][NMeAbu(4,4,4-F3)][NMeD]-Morpholide; lactam N-11)",NRAS/KRAS (ratio of KD value with respect to GDP-bound NRAS wild-type protein to KD value with respect to KRAS),[1],B (a compound having 3 or more and less than 10 is denoted as B)
same,HRAS/KRAS (ratio of KD value with respect to GDP-bound HRAS wild-type protein to KD value with respect to KRAS),[2],B (a compound having 3 or more and less than 10 is denoted as B)
"CCCN1C(=O)CN(C)C(=O)CN(C)C(=O)[C@H]([C@@H](C)CC)NC(=O)[C@H](CC(C)C)N(C)C(=O)C[C@@H](C(=O)N2CCOCC2)N(C)C(=O)[C@H](C2CCCC2)N(C)C(=O)C2(CCCC2)NC(=O)[C@@H]2CC(F)(F)CCN2C(=O)[C@H](CCc2ccc(C(F)(F)F)c(Cl)c2)NC(=O)CN(C)C(=O)[C@@H]1Cc1ccc(C(F)(F)F)cc1 [PP0264] ([NMeL]I[Sar][Sar][NPrPhe(4-CF3)][Sar][hPhe(3-Cl-4-CF3)][Pip(4,4-F2)][Ac5c][NMeGly(cPent)][NMeD]-Morpholide; lactam N-11)",NRAS/KRAS (ratio of KD for GDP-bound NRAS wild-type to KD for KRAS),[1],B (a compound having 3 or more and less than 10 is denoted as B)
same,HRAS/KRAS (ratio of KD for GDP-bound HRAS wild-type to KD for KRAS),[2],C (A compound having a KD ratio of 0.1 or more and less than 3 is denoted as C)
CC[C@H](C)[C@@H]1NC(=O)[C@H](CC(C)C)N(C)C(=O)C[C@@H](C(=O)N2CCOCC2)N(C)C(=O)[C@H](C2CCCC2)N(C)C(=O)C2(CCCC2)NC(=O)[C@@H]2CCCN2C(=O)[C@H](CCc2ccc(C(F)(F)F)c(Cl)c2)NC(=O)CN(C)C(=O)[C@H](Cc2ccc(F)cc2)N2C/C=C\CC[C@@H](C2=O)N(C)C(=O)CN(C)C1=O [PP0607],NRAS/KRAS (ratio of KD value with respect to GDP-bound NRAS wild-type protein to KD value with respect to KRAS),[1],C (A compound having a KD ratio of 0.1 or more and less than 3 is denoted as C)
same,HRAS/KRAS (ratio of KD value with respect to GDP-bound HRAS wild-type protein to KD value with respect to KRAS),[2],B (a compound having 3 or more and less than 10 is denoted as B)
CC[C@H](C)[C@@H]1NC(=O)[C@H](CC(C)C)N(C)C(=O)C[C@@H](C(=O)N2CCOCC2)N(C)C(=O)[C@H](C2CCCC2)N(C)C(=O)C2(CCCC2)NC(=O)[C@@H]2CCCN2C(=O)[C@H](CCc2ccc(C(F)(F)F)c(Cl)c2)NC(=O)CN(C)C(=O)[C@H](Cc2ccc(C)cc2)N(CCC(C)(C)C)C(=O)[C@@H]2CCN2C(=O)[C@H](C)N(C)C1=O [PP0087] ([NMeL]I[NMeA][Aze][X35][Sar][hPhe(3-Cl-4-CF3)]P[Ac5c][NMeGly(cPent)][NMeD]-Morpholide; lactam N-11),NRAS/KRAS (ratio of KD for GDP-bound NRAS wild-type to KD for KRAS),[1],C (A compound having a KD ratio of 0.1 or more and less than 3 is denoted as C)
same,HRAS/KRAS (ratio of KD for GDP-bound HRAS wild-type to KD for KRAS),[2],C (A compound having a KD ratio of 0.1 or more and less than 3 is denoted as C)
CCO[C@@H]1C[C@H]2C(=O)NC3(CCC3)C(=O)N(C)[C@@H](C3CCCC3)C(=O)N(C)[C@H](C(=O)N3CCOCC3)CC(=O)N(C)[C@@H](COC)C(=O)N[C@@H]([C@@H](C)CC)C(=O)N(C)CC(=O)N(C)[C@H]3CCCCCN(C3=O)[C@@H](Cc3ccc(C(F)(F)F)cc3)C(=O)N(C)CC(=O)N[C@@H](CCc3ccc(C)cc3)C(=O)N2C1 [PP0850],NRAS/KRAS (ratio of KD value with respect to NRAS to KD value with respect to KRAS),[1],B (a compound having 3 or more and less than 10 is denoted as B)
same,HRAS/KRAS (ratio of KD value with respect to HRAS to KD value with respect to KRAS),[2],B (a compound having 3 or more and less than 10 is denoted as B)

# From US20250230193A1, “CYCLIC COMPOUND HAVING SELECTIVE KRAS INHIBITORY EFFECT ON HRAS AND NRAS” (CHUGAI SEIYAKU KABUSHIKI KAISHA, priority 2022, published 2025)
